Assay [1] addresses T1, SPAK (Homo sapiens, UniProt Q9UEW8).
T1 construct: GST (N, cleaved yes); made in house; host or cells: E. coli EcAR7 with Sep-OTS
In words: In vitro SPAK ELISA assay monitoring NKCC1 phosphorylation (T^PNKCC1 antibody). The assay is classed as biochemical. As to conditions: on target activity in vitro; read-out: IC50 In vitro.

The test system of a further assay is GBM612 cells. The assay can be described thus: On target activity in GBM612 cells (Western blot). The class given is cell-based, human. As to conditions: on target activity in GBM cells. A general note: Immunoblotting shows a protein as a band on a membrane.
Assay [2] deals with T1, SPAK. The assay can be described thus: In vitro SPAK ELISA assay monitoring NKCC1 phosphorylation (T^PNKCC1 antibody). The assay is classed as biochemical. As to conditions: analogues of (6a). The method, then:
The GlaxoSmithKline published kinase inhibitor set, PKIS (Dranchak, et al., 2013, Plos One 8), was used to evaluate potential SPAK drug inhibitor candidates. The pilot inhibitor screen tested the capability of 320 compounds to inhibit the kinase activity of purified co-expressed SP382 WNK1 (1-661)/WT SPAK using an ELISA based screen monitoring a reduction in NKCC1 phosphorylation with the NKCC1 phospho-specific antibody, T^PNKCC1. 10 nL of each inhibitor compound (final concentration 20 μM) or DMSO vehicle controls were added to dry 384 well-flat bottom low volume non-binding assay plates (Corning) using an Echo 550 Acoustic dispenser (Labcyte). […] The assay plates were centrifuged at 200 g for 1 min, then incubated at RT for 30 min. Following inhibitor incubation, the kinase reaction was initiated with 1 μL of 50 μM ATP (final concentration 10 uM) or 1 μL of Kinase reaction buffer for negative controls and reacted for 1 hr at 37° C. The reaction was then quenched with 5 μL Kinase Stop buffer (100 mM Tris pH 8, 300 mM NaCl, 40 mM EDTA) and incubated for 1 min with shaking at 450 rpm. 2 μL of each quenched reaction was added to 18 μL TBS (50 mM Tris pH 8, 150 mM NaCl) in white 384-well Nunc Maxisorp plates (Thermo Scientific) using a PlateMate Plus (Thermo Scientific). The plate was shaken for 1 min at 450 rpm, sealed and incubated at 4° C. overnight to allow the protein contents of the reaction to bind to the Maxisorp plate. The next morning the solution was removed, and the plates were then subjected to 3 washes in TBST (50 mM Tris pH 7.5, 150 mM NaCl. 0.05% Tween 20) for 5 min each wash with shaking at 400 rpm. The plates were blocked with TBST buffer containing 3% BSA (w/v) at RT for 2 hrs at RT. The blocking buffer was removed, and the plates were immunoblotted with 1:50,000 dilution of T^PNKCC1 in blocking buffer for 2 hrs at RT. The plates were then subjected to 3 washes in TBST for 5 min each wash with shaking at 400 rpm, followed by incubating with 1:10,000 dilution of 2° DAR-HPR antibody in blocking buffer for 1 hr at RT. The plates were washed again 3 times in TBST for 5 min each wash with shaking at 400 rpm. Signal was detected by SuperSignal ELISA Pico Chemiluminescent substrate (ThermoScientific), and read on an EnVision multi-label plate reader (Perkin-Elmer).
A general note: An ELISA detects its analyte on a solid surface through an enzyme-linked reagent.

In another assay the test system is mDCT15 cells. The assay can be described thus: Cell volume of mDCT15 cells by microscopic imaging. As to conditions: 40 μM, four-hour time course. The assay is classed as cell-based, mouse. The procedure:
FIGS. 12A-12F illustrate the finding that (7a) depletes phosphorylated NKCC1 and reduces cell volume in mDCT15 cells. FIG. 12A: Structures of (7a) and analog (7b). FIG. 12B: In vitro dose-dependent inhibition comparing (7a) and (7b) evaluated by western blot using T^PNKCC1. FIG. 12C: Western blot analysis of NKCC1 phospho-depletion in mDCT15 cells under various conditions. FIG. 12D: mDCT15 cells were incubated with 40 μM (7a), 40 μM Cabozantinib (XL-184), or equivalent volume of DMSO vehicle for 1 hr, 2 hr, 3 hr, and 4 hr. NKCC1 phosphorylation was monitored using the T^PNKCC1 antibody and compared to total NKCC1. FIG. 12E: HEK 293 induced to express KCC were incubated with 40 μM (7a), 40 μM Cabozantinib (XL-184), or equivalent volume of DMSO vehicle for 1 hr, and 2 hr time points. KCC phosphorylation was monitored using the T^PKCC antibody and compared to total KCC using C-Myc antibody. FIG. 12F: mDCT15 cells were incubated with 40 μM (7a), 40 μM Cabozantinib (XL-184), or equivalent volume of DMSO vehicle for a 1 hr, 2 hr, 3 hr, and 4 hr time course. After incubation the cells were imaged using 20× bright field microscopy. 1 hr and 4 hr time points are shown.
FIG. 13 comprises images of mDCT15 cells incubated with 40 μM (7a) 40 μM, Cabozantinib (XL-184), or equivalent volume of DMSO vehicle for a 1 hr, 2 hr, 3 hr, and 4 hr time course (partially shown in FIG. 12F). […]

Assay [3] deals with NKCC1 phosphorylation in mDCT15 cells. In words: NKCC1 phosphorylation in mDCT15 cell lysates (T^PNKCC1 immunoblot). The assay is classed as cell-based, mouse. As to conditions: 40 μM, span of 4 hrs. The method, then: Mouse distal convoluted tubule (mDCT15) cells (Naguro, et al., 2012, Nature comm. 3:1285) were cultured in DMEM/Ham's F-12 media supplemented with 1% PSN and 5% FBS. Before each set of experiments 2×10^5 cells/well were plated in 24-well plates treated with 100 ug/mL poly-D-lysine and grown at 37° C. in 5% CO2 to ˜95% confluency. […] […] […] All media was removed and 100 μL of cell culture lysis buffer (100 mM Tris/HCl pH 7.4, 300 mM NaCl, 5 mM EDTA, 5 mM EGTA, 2 mM DTT, 10% glycerol, 2% triton X-100, Roche protease inhibitor, and phosphatase inhibitor cocktail 3 (Sigma-Aldrich St. Louis, MO)) was added to each well, transferred to a clean 1.5 mL Eppendorf tube, and incubated on ice for a minimum of 10 min. The cell lysates were centrifuged at 21,000 G for 10 min. The clarified lysate was stored at −80° C.
Protein samples were subjected to electrophoresis on polyacrylamide gels and transferred to PVDF membranes. The membranes were incubated overnight in TBST blocking buffer containing 5% milk (w/v) (for the antibodies raised in sheep) or 3% BSA (w/v) (for all other antibodies). […] Signal was detected by enhanced chemiluminescence (Bio-rad) imaged on a ChemiDoc™ XRS+ CCD camera.

The test system of the next assay is pancreatic cancer cells. The assay can be described thus: Pancreatic cancer cell migration in vitro. The assay is classed as cell-based. As to conditions: FIG. 36.

As to `CNC(=O)c1ccccc1Nc1nc(Nc2ccc(OC)c(N3CCN(C)CC3)c2)ncc1C#N` [(6d), 2-((5-cyano-2-((4-methoxy-3-(4-methylpiperazin-1-yl)phenyl)amino)pyrimidin-4-yl)amino)-N-methylbenzamide], the half-inhibitory concentration (IC50) (as a rule, the concentration needed to halve the response being measured) at SPAK [1] is 5.2 µM. In addition, in the assay with GBM612 cells, the “Activity in GMB612, 0.2 μM” value is given as “No” and the “Activity in GMB612, 2 μM” value is on record as “Yes”. Further, on SPAK [2], the SPAK inhibition entry was “measurable SPAK inhibition”.
Regarding `COc1ccc(Nc2ncc(C#N)c(Nc3ccccc3-c3ncco3)n2)cc1N1CCN(C)CC1` [(6c), 2-((4-methoxy-3-(4-methylpiperazin-1-yl)phenyl)amino)-4-((2-(oxazol-2-yl)phenyl)amino)pyrimidine-5-carbonitrile], the half-inhibitory concentration (IC50) at SPAK [1] came out at 9 µM. Also, in the assay on GBM612 cells, the “Activity in GMB612, 0.2 μM” value is “No” and the “Activity in GMB612, 2 μM” value is recorded as “No”.
In the case of `COc1ccc(Nc2ncc(C#N)c(Nc3ccccc3-c3nc[nH]n3)n2)cc1N1CCN(C)CC1` [(6g), 4-((2-(1H-1,2,4-triazol-3-yl)phenyl)amino)-2-((4-methoxy-3-(4-methylpiperazin-1-yl)phenyl)amino)pyrimidine-5-carbonitrile], on SPAK [1], the IC50 stood at 12 µM. In the assay with GBM612 cells, the “Activity in GMB612, 0.2 μM” value is “No” and the “Activity in GMB612, 2 μM” value is “No”.
`COc1ccc(Nc2ncc(C#N)c(Nc3ccccc3-c3nnn[nH]3)n2)cc1N1CCN(C)CC1` [(6f), 4-((2-(1H-tetrazol-5-yl)phenyl)amino)-2-((4-methoxy-3-(4-methylpiperazin-1-yl)phenyl)amino)pyrimidine-5-carbonitrile]: the concentration for half-maximal inhibition (IC50) at SPAK [1] is 3.5 µM. Besides, in the assay with GBM612 cells, the “Activity in GMB612, 0.2 μM” value was “No” and the “Activity in GMB612, 2 μM” value is on record as “Yes”. Also, at SPAK [2], the SPAK inhibition entry was “measurable SPAK inhibition”.
Taken in the same sequence, the figures for `CONC(=O)c1ccccc1Nc1nc(Nc2ccc(OC)c(N3CCN(C)CC3)c2)ncc1C#N` [(6e), 2-((5-cyano-2-((4-methoxy-3-(4-methylpiperazin-1-yl)phenyl)amino)pyrimidin-4-yl)amino)-N-methoxybenzamide] were 2.6 µM, “No”, “Yes” and “measurable SPAK inhibition”.
For the molecule `COc1cc2nccc(Oc3ccc(NC(=O)C4(C(=O)Nc5ccc(F)cc5)CC4)cc3)c2cc1OC` [XL-184, Cabozantinib malate], the “Cell volume change, mDCT15 cells” value with mDCT15 cells is listed as “neither XL-184 nor Vehicle had any detectable change”. Moreover, the “NKCC1 phosphorylation over time without osmotic triggers” value in assay [3] is reported as “no discernable effect on NKCC1 phosphorylation”.
With `COc1ccc(Nc2ncc(C#N)c(Nc3cccc4c3C(=O)NC4)n2)cc1N1CCN(C)CC1` [(6b)], at SPAK [1], the IC50 was 0.05 µM. In the assay on GBM612 cells, the “Activity in GMB612, 0.2 μM” value is reported as “Yes” and the “Activity in GMB612, 2 μM” value is “Yes”. In addition, at SPAK [2], the SPAK inhibition entry was “measurable SPAK inhibition”.
On to `Nc1ccn([C@@H]2O[C@H](CO)[C@@H](O)C2(F)F)c(=O)n1` [Gemcitabine, reference compound], for which the “pancreatic cancer cell migration” value in the assay on pancreatic cancer cells is recorded as “does not”.

Source of the values: patent publication US12643891B2, “SPAK/OSR inhibitors and methods of using same” (YALE UNIVERSITY, priority 2019, dated 2026).
